Measured values from publication PMC6017830, “Furan- and Thiophene-2-Carbonyl Amino Acid Derivatives Activate Hypoxia-Inducible Factor via Inhibition of Factor Inhibiting Hypoxia-Inducible Factor-1” (Molecules : A Journal of Synthetic Chemistry and Natural …, 2018).
pIC50: −log10 of the molar value.

Key:
[1] = tested on: HIF-HRE transcriptional activity in SKN:HRE-MLuc cells (reflects FIH-1 inhibition); test: HIF activity under hypoxia, HRE-MLuc luciferase reporter assay; format: cell-based, human; details: for activation at 100 µM / minimal effective concentration: Homo sapiens; for activation at 100 µM: read-out: 100 μM Activity (RLU intensity at 100 μM stimulation compared with the positive control DMOG); for minimal effective concentration: doses 100, 25, 6.3, 1.6 μM, DMOG 100 μM as positive control, read-out: 25% Activity (lower dose limit showing 25% of the RLU intensity of the positive control DMOG); for HIF activity (HRE-MLuc reporter), result in words: hypoxic conditions (3% O2), 24 h, reference compounds at 100 μM
Protocol: To evaluate HIF transactivation following FIH-1 inhibition […], we employed a luciferase reporter assay system in the human neuroblastoma cell line SK-N-BE(2)c. […] Hereafter these HRE reporter cells were designated SKN:HRE-MLuc cells.
SKN:HRE-MLuc (4 × 10^4) were incubated for 24 h on a 96 well culture plate. The medium was replaced with complete media and the test compounds (100, 25, 6.3 and 1.6 μM). DMSO (0.1%) was used as a vehicle control, DMOG (100 μM) and FG4592 (100 μM) were used as a PHDs or FIH-1 inhibitor. The cells were incubated for 24 h under a humidified atmosphere of 5% CO2 and 3% O2 at 37 °C. After incubation, the MLuc activity in culture media was measured with luciferase substrate (Takara, Shiga, Japan) by LB960 luminometer (Berthold, Wildbad, Germany). The HIF activity was calculated as the MLuc intensity, based on the vehicle and positive controls. The lower limit dose out of 100 μM, 25 μM, 6.3 μM, 1.6 μM was listed in Table 1 and Table 2, where 25% RLU intensity was measured using DMOG as a positive control.

SKN:HRE-MLuc cells = test: MTS assay (cellular toxicity); format: cell-based, human; details: MTS assay
Text: Next, we evaluated the activation of HIF by furan- and thiophene-2-carbonyl amino acid derivatives using the evaluation methods described above. Simultaneously, we investigated cellular toxicity for those derivatives with a 3-(4,5-dimethylthiazol-2-yl)-5-(3-carboxymethoxyphenyl)-2-(4-sulfophenyl)-2H-tetrazolium (MTS) assay. To indicate cellular membrane permeability, the partition coefficients, which are frequently represented by calculated logP (clogP) are listed in Table 1 and Table 2.
Cellular toxicity was measured using the CellTiter 96® Aqueous One Solution Cell Proliferation Assay kit (Promega, Madison, WI, USA). The cells were stimulated with each compound and treated with the CellTiter solution. After incubation for 3 h, the absorbance of the solutions at 492 nm was measured by Multiskan FC (Thermo Fisher Scientific, Waltham, MS, USA). As a negative control, wells with culture media were used. Wells treated with DMSO (0.1%) were used as a positive control. The IC50 values were determined using these controls.

[2] = 100 μM, SKN:HRE-MLuc cells, 3% O2, 24 h
[3] = SKN:HRE-MLuc cells, 3% O2, 24 h

For `COC(=O)CNC(=O)c1ccco1` [Compound 1, Methyl (furan-2-carbonyl)glycinate], the activation at 100 µM [1, 2] was 20%, the minimal effective concentration [1, 3] was 25 µM and the “HIF activity (HRE-MLuc reporter), result in words” value [1] was “stabilized HIF and transactivated the HRE-driven MLuc reporter”. The pIC50 (SKN:HRE-MLuc cells; Homo sapiens) was < 4.00.

With `COC(=O)CNC(=O)c1cccs1` [Compound 2, Methyl (thiophene-2-carbonyl)glycinate] the activation at 100 µM [1, 2] was 0% and the pIC50 (SKN:HRE-MLuc cells; Homo sapiens) was < 4.00.

In the case of `COC(=O)[C@H](Cc1c[nH]c2ccccc12)NC(=O)c1ccco1` [Compound 3, (S)-Methyl (furan-2-carbonyl)tryptophanate], the activation at 100 µM [1, 2] was 0% and the pIC50 (SKN:HRE-MLuc cells; Homo sapiens) was < 4.00.

In the case of `COC(=O)[C@@H](Cc1c[nH]c2ccccc12)NC(=O)c1ccco1` [Compound 4, (R)-Methyl (furan-2-carbonyl)tryptophanate], the activation at 100 µM [1, 2] was 0% and the pIC50 (SKN:HRE-MLuc cells; Homo sapiens) was < 4.00.

For `COC(=O)[C@H](Cc1c[nH]c2ccccc12)NC(=O)c1cccs1` [Compound 5, (S)-Methyl (thiophene-2-carbonyl)tryptophanate], the activation at 100 µM [1, 2] was 0% and the pIC50 (SKN:HRE-MLuc cells; Homo sapiens) was < 4.00.

`COC(=O)[C@@H](Cc1c[nH]c2ccccc12)NC(=O)c1cccs1` [Compound 6, (R)-Methyl (thiophene-2-carbonyl)tryptophanate] was tested, and the activation at 100 µM [1, 2] was 0% and the pIC50 (SKN:HRE-MLuc cells; Homo sapiens) was < 4.00.

In the case of `COC(=O)[C@@H](Cc1ccccc1)NC(=O)c1ccc(C)o1` [Compound 8, (R)-Methyl (5-methylfuran-2-carbonyl)phenylalaninate], the activation at 100 µM [1, 2] was 2% and the pIC50 (SKN:HRE-MLuc cells; Homo sapiens) was < 4.00.

In the case of `COC(=O)[C@@H](Cc1c[nH]c2ccccc12)NC(=O)c1ccc(C)o1` [Compound 10, (R)-Methyl (5-methylfuran-2-carbonyl)tryptophanate], the activation at 100 µM [1, 2] was 0%, the minimal effective concentration [1, 3] was 6.3 µM and the pIC50 (SKN:HRE-MLuc cells; Homo sapiens) was < 4.00.

`Cc1ccc(C(=O)NCC(=O)O)s1` [Compound 11, (5-Methylthiophene-2-carbonyl)glycine] was tested, and the activation at 100 µM [1, 2] was 23%, the minimal effective concentration [1, 3] was 25 µM and the pIC50 (SKN:HRE-MLuc cells; Homo sapiens) was < 4.00.

For `Cc1ccc(C(=O)N[C@@H](C)C(=O)O)s1` [Compound 12, (S)-(5-Methylthiophene-2-carbonyl)alanine], the activation at 100 µM [1, 2] was 18% and the pIC50 (SKN:HRE-MLuc cells; Homo sapiens) was < 4.00.

For `CCOC(=O)[C@H](C)NC(=O)c1ccc(C)s1` [Compound 13, (S)-Ethyl (5-methylthiophene-2-carbonyl)alaninate], the activation at 100 µM [1, 2] was 0% and the pIC50 (SKN:HRE-MLuc cells; Homo sapiens) was < 4.00.

`COC(=O)[C@@H](Cc1ccccc1)NC(=O)c1ccc(C)s1` [Compound 14, (R)-Methyl (5-methylthiophene-2-carbonyl)phenylalaninate] was tested, and the activation at 100 µM [1, 2] was 0% and the pIC50 (SKN:HRE-MLuc cells; Homo sapiens) was < 4.00.

`CCOC(=O)[C@H](Cc1ccccc1)NC(=O)c1ccc(C)s1` [Compound 15, (S)-Ethyl (5-methylthiophene-2-carbonyl)phenylalaninate] was tested, and the activation at 100 µM [1, 2] was 12%, the minimal effective concentration [1, 3] was 25 µM and the pIC50 (SKN:HRE-MLuc cells; Homo sapiens) was < 4.00.

For `Cc1ccc(C(=O)N[C@H](Cc2c[nH]c3ccccc23)C(=O)O)s1` [Compound 16, (R)-(5-methylthiophene-2-carbonyl)tryptophan], the activation at 100 µM [1, 2] was 30%, the minimal effective concentration [1, 3] was 100 µM and the pIC50 (SKN:HRE-MLuc cells; Homo sapiens) was < 4.00.

For `CCOC(=O)[C@H](Cc1c[nH]c2ccccc12)NC(=O)c1ccc(C)s1` [Compound 17, (S)-Ethyl (5-methylthiophene-2-carbonyl)tryptophanate], the activation at 100 µM [1, 2] was 49%, the minimal effective concentration [1, 3] was 100 µM and the pIC50 (SKN:HRE-MLuc cells; Homo sapiens) was < 4.00.

With `CCOC(=O)[C@@H](Cc1c[nH]c2ccccc12)NC(=O)c1ccc(C)s1` [Compound 18, (R)-Ethyl (5-methylthiophene-2-carbonyl)tryptophanate] the activation at 100 µM [1, 2] was 52%, the minimal effective concentration [1, 3] was 100 µM and the pIC50 (SKN:HRE-MLuc cells; Homo sapiens) was < 4.00.

With `O=C(N[C@@H](Cc1ccccc1)C(=O)O)c1ccc(-c2ccccc2)o1` [Compound 19, (S)-(5-Phenylfuran-2-carbonyl)phenylalanine] the activation at 100 µM [1, 2] was 0% and the pIC50 (SKN:HRE-MLuc cells; Homo sapiens) was < 4.00.

With `COC(=O)[C@H](Cc1ccccc1)NC(=O)c1ccc(-c2ccccc2)o1` [Compound 20, (S)-Methyl (5-phenylfuran-2-carbonyl)phenylalaninate] the activation at 100 µM [1, 2] was 10% and the pIC50 (SKN:HRE-MLuc cells; Homo sapiens) was < 4.00.

`C[C@H](NC(=O)c1ccc(-c2ccccc2)s1)C(=O)O` [Compound 21, (S)-(5-Phenylthiophene-2-carbonyl)alanine] was tested, and the activation at 100 µM [1, 2] was 0% and the pIC50 (SKN:HRE-MLuc cells; Homo sapiens) was < 4.00.

With `CCOC(=O)[C@H](C)NC(=O)c1ccc(-c2ccccc2)s1` [Compound 22, (S)-Ethyl (5-phenylthiophene-2-carbonyl)alaninate] the activation at 100 µM [1, 2] was 16% and the pIC50 (SKN:HRE-MLuc cells; Homo sapiens) was < 4.00.

With `O=C(N[C@@H](Cc1ccccc1)C(=O)O)c1ccc(-c2ccccc2)s1` [Compound 23, (S)-(5-Phenylthiophene-2-carbonyl)phenylalanine] the activation at 100 µM [1, 2] was 0% and the pIC50 (SKN:HRE-MLuc cells; Homo sapiens) was < 4.00.

For `COC(=O)[C@H](Cc1ccccc1)NC(=O)c1ccc(-c2ccccc2)s1` [Compound 24, (S)-Methyl (5-phenylthiophene-2-carbonyl)phenylalaninate], the activation at 100 µM [1, 2] was 7% and the pIC50 (SKN:HRE-MLuc cells; Homo sapiens) was < 4.00.

`COC(=O)[C@H](Cc1c[nH]c2ccccc12)NC(=O)c1ccc(-c2ccccc2)s1` [Compound 25, (S)-Methyl (5-phenylthiophene-2-carbonyl)tryptophanate] was tested, and the activation at 100 µM [1, 2] was 0% and the pIC50 (SKN:HRE-MLuc cells; Homo sapiens) was < 4.00.

For `CCOC(=O)[C@H](Cc1ccccc1)NC(=O)c1ccc(-c2ccc(-c3ccccc3)cc2)s1` [Compound 32, (S)-Ethyl (5-((1,1′-biphenyl)-4-yl)thiophene-2-carbonyl)phenylalaninate], the activation at 100 µM [1, 2] was 0% and the pIC50 (SKN:HRE-MLuc cells; Homo sapiens) was < 4.00.

With `COC(=O)CNC(=O)c1ccc(-c2ccc(Oc3ccccc3)cc2)s1` [Compound 33, Methyl (5-(4-phenoxyphenyl)thiophene-2-carbonyl)glycinate] the activation at 100 µM [1, 2] was 0% and the pIC50 (SKN:HRE-MLuc cells; Homo sapiens) was < 4.00.

With `COC(=O)[C@H](C)NC(=O)c1ccc(-c2ccc(Oc3ccccc3)cc2)s1` [Compound 34, (S)-Methyl (5-(4-phenoxyphenyl)thiophene-2-carbonyl)alaninate] the activation at 100 µM [1, 2] was 0% and the pIC50 (SKN:HRE-MLuc cells; Homo sapiens) was < 4.00.

`CCOC(=O)[C@H](Cc1ccccc1)NC(=O)c1ccc(-c2ccc(Oc3ccccc3)cc2)s1` [Compound 35, (S)-Ethyl (5-(4-phenoxyphenyl)thiophene-2-carbonyl)phenylalaninate] was tested, and the activation at 100 µM [1, 2] was 0% and the pIC50 (SKN:HRE-MLuc cells; Homo sapiens) was < 4.00.

In the case of `COC(=O)[C@H](Cc1c[nH]c2ccccc12)NC(=O)c1ccc(-c2ccc(Oc3ccccc3)cc2)s1` [Compound 36, (S)-Methyl (5-(4-phenoxyphenyl)thiophene-2-carbonyl)tryptophanate], the activation at 100 µM [1, 2] was 0% and the pIC50 (SKN:HRE-MLuc cells; Homo sapiens) was < 4.00.

With `CCOC(=O)[C@H](Cc1ccccc1)NC(=O)c1cc2ccccc2o1` [Compound 37, (S)-Ethyl (benzofuran-2-carbonyl)phenylalaninate] the activation at 100 µM [1, 2] was 0% and the pIC50 (SKN:HRE-MLuc cells; Homo sapiens) was < 4.00.

For `COC(=O)CNC(=O)c1cc2ccccc2s1` [Compound 39, Methyl (benzothiophene-2-carbonyl)glycinate], the activation at 100 µM [1, 2] was 13% and the pIC50 (SKN:HRE-MLuc cells; Homo sapiens) was < 4.00.

For `CCOC(=O)[C@H](C)NC(=O)c1cc2ccccc2s1` [Compound 40, (S)-Ethyl (benzothiophene-2-carbonyl)alaninate], the activation at 100 µM [1, 2] was 0% and the pIC50 (SKN:HRE-MLuc cells; Homo sapiens) was < 4.00.

For `CCOC(=O)[C@H](Cc1ccccc1)NC(=O)c1cc2ccccc2s1` [Compound 41, (S)-Ethyl (benzothiophene-2-carbonyl)phenylalaninate], the activation at 100 µM [1, 2] was 2% and the pIC50 (SKN:HRE-MLuc cells; Homo sapiens) was < 4.00.

For `COC(=O)[C@H](Cc1c[nH]c2ccccc12)NC(=O)c1cc2ccccc2s1` [Compound 43, (S)-Methyl (benzothiophene-2-carbonyl)tryptophanate], the activation at 100 µM [1, 2] was 0% and the pIC50 (SKN:HRE-MLuc cells; Homo sapiens) was < 4.00.

`COC(=O)[C@H](Cc1ccc(O)cc1)NC(=O)c1cc2ccccc2s1` [Compound 44, (S)-Methyl (benzothiophene-2-carbonyl)tyrosinate] was tested, and the activation at 100 µM [1, 2] was 0% and the pIC50 (SKN:HRE-MLuc cells; Homo sapiens) was < 4.00.

For `COC(=O)C(=O)N[C@H](Cc1ccccc1)C(=O)OC` [DM-NOFD, dimethyl N-oxalyl-D-phenylalanine, reference compound], the “HIF activity (HRE-MLuc reporter), result in words” value [1] was “significantly enhanced HIF activity”.

For “(R)-Ethyl (benzothiophene-2-carbonyl)phenylalaninate [Compound 42]”, the “100 μM Activity (RLU intensity at 100 μM stimulation compared with the positive control DMOG)” value [1, 2] was 0% and the pIC50 (SKN:HRE-MLuc cells) was < 4.00.
